Test results published in patent publication US20150105252A1, “SUBSTITUTED PYRAZOLES AS HERBICIDES” (E I DU PONT DE NEMOURS AND COMPANY, priority 2013, published 2015).

Assays:
[1] = test system: bromegrass, downy; assay: Test D preemergence; assay type: in vivo, Bromus tectorum; details: for Plant response rating, Bromegrass, Downy: Preemergence, scale 0 to 100
Source text: (§1) Seeds of plant species selected from bluegrass (annual bluegrass, Poa annua), blackgrass (Alopecurus myosuroides), canarygrass (littleseed canarygrass, Phalaris minor), chickweed (common chickweed, Stellaria media), galium (catchweed bedstraw, Galium aparine), bromegrass, downy (downy bromegrass, Bromus tectorum), field poppy (Papaver rhoeas), field violet (Viola arvensis), foxtail, green (green foxtail, Setaria viridis), deadnettle (henbit deadnettle, Lamium amplexicaule), ryegrass, Italian (Italian ryegrass, Lolium multiflorum), kochia (Kochia scoparia), lambsquarters (Chenopodium album), oilseed rape (Brassica napus), pigweed (redroot pigweed, Amaranthus retroflexus), chamomile (scentless chamomile, Matricaria inodora), speedwell (bird's-eye speedwell, Veronica persica), barley, spring (spring barley, Hordeum vulgare), wheat, spring (spring wheat, Triticum aestivum), buckwheat, wild (wild buckwheat, Polygonum convolvulus), mustard, wild (wild mustard, Sinapis arvensis), oat, wild (wild oat, Avena fatua), radish, wild (wild radish, Raphanus raphanistrum), windgrass (Apera spica-venti), Russian thistle (Salsola kali), barley, winter (winter barley, Hordeum vulgare), and wheat, winter (winter wheat, Triticum aestivum) were planted into a silt loam soil and treated preemergence with test chemicals formulated in a non-phytotoxic solvent mixture which included a surfactant.
(§2) At the same time, these species were planted in pots containing Redi-Earth® planting medium (Scotts Company, 14111 Scottslawn Road, Marysville, Ohio 43041) comprising spaghnum peat moss, vermiculite, wetting agent and starter nutrients and treated with postemergence applications of the test chemicals formulated in the same manner. Plants ranged in height from 2 to 18 cm (1- to 4-leaf stage). Treated plants and controls were maintained in a controlled growth environment for 14 to 21 days after which time all species were compared to controls and visually evaluated. Plant response ratings, summarized in Table D, are based on a scale of 0 to 100 where 0 is no effect and 100 is complete control. A dash (-) response means no test result.

[2] = test system: foxtail, green; assay: Test D preemergence; assay type: in vivo, Setaria viridis; details: for Plant response rating, Foxtail, Green: Preemergence, scale 0 to 100
Source text: as §1, §2

[3] = test system: deadnettle; assay: Test D preemergence; assay type: in vivo, Lamium amplexicaule; details: for Plant response rating, Deadnettle: Preemergence, scale 0 to 100
Source text: as §1, §2

[4] = test system: lambsquarters; assay: Test D preemergence; assay type: in vivo, Chenopodium album; details: for Plant response rating, Lambsquarters: Preemergence, scale 0 to 100
Source text: as §1, §2

[5] = test system: pigweed; assay: Test D preemergence; assay type: in vivo, Amaranthus retroflexus; details: Preemergence, scale 0 to 100
Source text: as §1, §2

[6] = test system: chamomile; assay: Test D preemergence; assay type: in vivo, Matricaria inodora; details: for Plant response rating, Chamomile: Preemergence, scale 0 to 100
Source text: as §1, §2

[7] = test system: barley, spring; assay: Test D preemergence; assay type: in vivo, Hordeum vulgare; details: for Plant response rating, Barley, Spring: Preemergence, scale 0 to 100
Source text: as §1, §2

[8] = test system: barley, winter; assay: Test D preemergence; assay type: in vivo, Hordeum vulgare; details: for Plant response rating, Barley, Winter: Preemergence, scale 0 to 100
Source text: as §1, §2

[9] = test system: wheat, spring; assay: Test D preemergence; assay type: in vivo, Triticum aestivum; details: for Plant response rating, Wheat, Spring: Preemergence, scale 0 to 100
Source text: as §1, §2

[10] = test system: wheat, winter; assay: Test D preemergence; assay type: in vivo, Triticum aestivum; details: for Plant response rating, Wheat, Winter: Preemergence, scale 0 to 100
Source text: as §1, §2

[11] = test system: radish, wild; assay: Test D preemergence; assay type: in vivo, Raphanus raphanistrum; details: for Plant response rating, Radish, Wild: Preemergence, scale 0 to 100
Source text: as §1, §2

[12] = test system: canarygrass; assay: Test D postemergence; assay type: in vivo, Phalaris minor; details: scale 0 to 100
Source text: as §1, §2

[13] = test system: field violet; assay: Test D postemergence; assay type: in vivo, Viola arvensis; details: scale 0 to 100
Source text: as §1, §2

[14] = test system: deadnettle; assay: Test D postemergence; assay type: in vivo, Lamium amplexicaule; details: scale 0 to 100
Source text: as §1, §2

[15] = test system: pigweed; assay: Test D postemergence; assay type: in vivo, Amaranthus retroflexus; details: scale 0 to 100
Source text: as §1, §2

[16] = test system: barley, spring; assay: Test D postemergence; assay type: in vivo, Hordeum vulgare; details: scale 0 to 100
Source text: as §1, §2

[17] = test system: barley, winter; assay: Test D postemergence; assay type: in vivo, Hordeum vulgare; details: scale 0 to 100
Source text: as §1, §2

[18] = test system: buckwheat, wild; assay: Test D postemergence; assay type: in vivo, Polygonum convolvulus; details: scale 0 to 100
Source text: as §1, §2

[19] = test system: oat, wild; assay: Test D postemergence; assay type: in vivo, Avena fatua; details: scale 0 to 100
Source text: as §1, §2

[20] = 16 g ai/ha, taken as preemergence

## CCc1cc(C(=O)NOC(C)C)nn1Cc1cccc(OC(F)(F)F)c1 [Compound 70]
[1]; [20]
  Plant response rating (scale 0 to 100), Bromegrass, Downy: 0
[1]; 31 g ai/ha
  Plant response rating, Bromegrass, Downy: 0
[1]; 62 g ai/ha
  Plant response rating, Bromegrass, Downy: 0
[1]; 125 g ai/ha
  Plant response rating, Bromegrass, Downy: 10
[1]; 250 g ai/ha
  Plant response rating, Bromegrass, Downy: 20
[2]; [20]
  Plant response rating (scale 0 to 100), Foxtail, Green: 0
[2]; 31 g ai/ha
  Plant response rating, Foxtail, Green: 0
[2]; 62 g ai/ha
  Plant response rating, Foxtail, Green: 0
[2]; 125 g ai/ha
  Plant response rating, Foxtail, Green: 20
[2]; 250 g ai/ha
  Plant response rating, Foxtail, Green: 100
[3]; [20]
  Plant response rating (scale 0 to 100), Deadnettle: 0
[3]; 31 g ai/ha
  Plant response rating, Deadnettle: 25
[3]; 62 g ai/ha
  Plant response rating, Deadnettle: 30
[3]; 125 g ai/ha
  Plant response rating, Deadnettle: 50
[3]; 250 g ai/ha
  Plant response rating, Deadnettle: 100
[4]; [20]
  Plant response rating (scale 0 to 100), Lambsquarters: 0
[4]; 31 g ai/ha
  Plant response rating, Lambsquarters: 0
[4]; 62 g ai/ha
  Plant response rating, Lambsquarters: 0
[4]; 125 g ai/ha
  Plant response rating, Lambsquarters: 100
[4]; 250 g ai/ha
  Plant response rating, Lambsquarters: 100
[5]; 62 g ai/ha
  Plant response rating, Pigweed: 0
[5]; 250 g ai/ha
  Plant response rating, Pigweed: 75
[6]; [20]
  Plant response rating (scale 0 to 100), Chamomile: 0
[6]; 31 g ai/ha
  Plant response rating, Chamomile: 0
[6]; 62 g ai/ha
  Plant response rating, Chamomile: 0
[6]; 125 g ai/ha
  Plant response rating, Chamomile: 15
[6]; 250 g ai/ha
  Plant response rating, Chamomile: 40
[7]; 16 g ai/ha, taken as preemergence, 0 = no effect, 100 = complete control
  Plant response rating (scale 0 to 100), Barley, Spring: 0
[7]; 31 g ai/ha
  Plant response rating, Barley, Spring: 0
[7]; 62 g ai/ha
  Plant response rating, Barley, Spring: 0
[7]; 125 g ai/ha
  Plant response rating, Barley, Spring: 0
[7]; 250 g ai/ha
  Plant response rating, Barley, Spring: 15
[8]; [20]
  Plant response rating (scale 0 to 100), Barley, Winter: 0
[8]; 31 g ai/ha
  Plant response rating, Barley, Winter: 0
[8]; 62 g ai/ha
  Plant response rating, Barley, Winter: 0
[8]; 125 g ai/ha
  Plant response rating, Barley, Winter: 0
[8]; 250 g ai/ha
  Plant response rating, Barley, Winter: 10
[9]; [20]
  Plant response rating (scale 0 to 100), Wheat, Spring: 0
[9]; 31 g ai/ha
  Plant response rating, Wheat, Spring: 0
[9]; 62 g ai/ha
  Plant response rating, Wheat, Spring: 0
[9]; 125 g ai/ha
  Plant response rating, Wheat, Spring: 10
[9]; 250 g ai/ha
  Plant response rating, Wheat, Spring: 20
[10]; [20]
  Plant response rating (scale 0 to 100), Wheat, Winter: 0
[10]; 31 g ai/ha
  Plant response rating, Wheat, Winter: 0
[10]; 62 g ai/ha
  Plant response rating, Wheat, Winter: 0
[10]; 125 g ai/ha
  Plant response rating, Wheat, Winter: 0
[10]; 250 g ai/ha
  Plant response rating, Wheat, Winter: 10
[11]; [20]
  Plant response rating (scale 0 to 100), Radish, Wild: 0
[11]; 31 g ai/ha
  Plant response rating, Radish, Wild: 0
[11]; 62 g ai/ha
  Plant response rating, Radish, Wild: 0
[11]; 125 g ai/ha
  Plant response rating, Radish, Wild: 100
[11]; 250 g ai/ha
  Plant response rating, Radish, Wild: 100
[12]; Postemergence, 16 g ai/ha
  Plant response rating, Canarygrass: 0
[12]; Postemergence, 31 g ai/ha
  Canarygrass plant response rating: 0
[12]; Postemergence, 125 g ai/ha
  Canarygrass plant response rating: 0
[12]; Postemergence, 250 g ai/ha
  Canarygrass plant response rating: 10
[12]; postemergence, 62 g ai/ha
  Canarygrass plant response rating: 0
[13]; Postemergence, 16 g ai/ha
  Plant response rating, Field Violet: 20
[13]; Postemergence, 31 g ai/ha
  Field Violet plant response rating: 40
[13]; Postemergence, 125 g ai/ha
  Field Violet plant response rating: 75
[13]; Postemergence, 250 g ai/ha
  Field Violet plant response rating: 75
[13]; postemergence, 62 g ai/ha
  Field Violet plant response rating: 40
[14]; Postemergence, 16 g ai/ha
  Plant response rating, Deadnettle: 0
[14]; Postemergence, 31 g ai/ha
  Deadnettle plant response rating: 10
[14]; Postemergence, 125 g ai/ha
  Deadnettle plant response rating: 30
[14]; Postemergence, 250 g ai/ha
  Deadnettle plant response rating: 60
[14]; postemergence, 62 g ai/ha
  Deadnettle plant response rating: 10
[15]; Postemergence, 16 g ai/ha
  Plant response rating, Pigweed: 40
[15]; Postemergence, 31 g ai/ha
  Pigweed plant response rating: 60
[15]; Postemergence, 125 g ai/ha
  Pigweed plant response rating: 75
[15]; Postemergence, 250 g ai/ha
  Pigweed plant response rating: 90
[15]; postemergence, 62 g ai/ha
  Pigweed plant response rating: 60
[16]; Postemergence, 16 g ai/ha
  Barley, Spring plant response rating: 0
[16]; Postemergence, 31 g ai/ha
  Barley, Spring plant response rating: 0
[16]; Postemergence, 125 g ai/ha
  Barley, Spring plant response rating: 5
[16]; Postemergence, 250 g ai/ha
  Barley, Spring plant response rating: 5
[16]; postemergence, 62 g ai/ha
  Barley, Spring plant response rating: 0
[17]; Postemergence, 16 g ai/ha
  Barley, Winter plant response rating: 0
[17]; Postemergence, 31 g ai/ha
  Barley, Winter plant response rating: 0
[17]; Postemergence, 125 g ai/ha
  Barley, Winter plant response rating: 5
[17]; Postemergence, 250 g ai/ha
  Barley, Winter plant response rating: 5
[17]; postemergence, 62 g ai/ha
  Barley, Winter plant response rating: 5
[18]; Postemergence, 16 g ai/ha
  Plant response rating, Buckwheat, Wild: 10
[18]; Postemergence, 31 g ai/ha
  Buckwheat, Wild plant response rating: 20
[18]; Postemergence, 125 g ai/ha
  Buckwheat, Wild plant response rating: 20
[18]; Postemergence, 250 g ai/ha
  Buckwheat, Wild plant response rating: 35
[18]; postemergence, 62 g ai/ha
  Buckwheat, Wild plant response rating: 20
[19]; Postemergence, 16 g ai/ha
  Plant response rating, Oat, Wild: 0
[19]; Postemergence, 31 g ai/ha
  Oat, Wild plant response rating: 0
[19]; Postemergence, 125 g ai/ha
  Oat, Wild plant response rating: 0
[19]; Postemergence, 250 g ai/ha
  Oat, Wild plant response rating: 10
[19]; postemergence, 62 g ai/ha
  Oat, Wild plant response rating: 0
